Laboratory results published in US20250179059A1 (The Regents of the University of California, priority 2021, published 2025).

Columns and labels:
[1] = target: T1, human BRD4 bromodomain II (Homo sapiens, UniProt O60885); assay: Bromodomain binding assay (AlphaScreen), BRD4 BDII; details: AlphaScreen assay, Table C2; read-out: BRD4 BDII IC50
T1 construct: human BRD4 bromodomain II [based on Genbank NM_058243, residues 349-460]; host or cells: E. coli
Summary of the method: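 Tagged BRD4 BDI or BDII constructs, expressed in E. coli, competed against a K5/K8/K12/K16-acetylated biotin-H4 peptide. Proximity signal between bead pairs after room-temperature incubations gave concentration-response curves, from which IC50 was derived.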

[2] = tested on: human SKM-1 acute myeloid leukemia cells; assay: SKM-1 antiproliferation cell-based assay (ATPlite); details: Homo sapiens, SKM-1, 96 h, SKM-1 antiproliferation assay, 4 days, Table C2
Summary of the method: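 Log-phase cells in RPMI 1640/15% FBS were seeded at 34722 cells/mL and exposed for 4 days to nine-concentration DMSO serial dilutions in triplicate. Viability was read as ATP luminescence (ATPlite 1step), and IC50 values came from variable-slope non-linear regression.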

Row | SMILES | IC50 [1] [nM] | GI50 [2] [nM]
1 | CC(C)N1CCN(c2cc(-c3cc(F)cc(-c4ccc(-n5ccn(C)c5=O)c(Cl)c4)c3O)ccn2)CC1 [Example 530, 1-(3-chloro-5′-fluoro-2′-hydroxy-3′-(2-(4-isopropylpiperazin-1-yl)pyridin-4-yl)-[1,1′-biphenyl]-4-yl)-3-methyl-1H-imidazol-2(3H)-one] | 0.01 to 1 | 0.3 to 30
2 | Cn1ccn(-c2ccc(-c3cc(F)cc(-c4ccnc(N5CCN(C6CC6)CC5)c4)c3O)cc2Cl)c1=O [Example 531, 1-(3-chloro-3′-(2-(4-cyclopropylpiperazin-1-yl)pyridin-4-yl)-5′-fluoro-2′-hydroxy-[1,1′-biphenyl]-4-yl)-3-methyl-1H-imidazol-2(3H)-one] | 1 to 10 | 30 to 300
3 | Cn1ccn(-c2ccc(-c3cc(F)cc(-c4ccnc(N5CCNc6ccccc65)c4)c3O)cc2Cl)c1=O [Example 532, 1-(3-chloro-3′-(2-(3,4-dihydroquinoxalin-1(2H)-yl)pyridin-4-yl)-5′-fluoro-2′-hydroxy-[1,1′-biphenyl]-4-yl)-3-methyl-1H-imidazol-2(3H)-one] | > 100 | ≥ 3000
4 | Cn1ccn(-c2ccc(-c3cc(F)cc(-c4cc(N5CC[C@H](N)C5)c5nc[nH]c5c4)c3O)cc2Cl)c1=O [Example 533, (S)-1-(3′-(4-(3-aminopyrrolidin-1-yl)-1H-benzo[d]imidazol-6-yl)-3-chloro-5′-fluoro-2′-hydroxy-[1,1′-biphenyl]-4-yl)-3-methyl-1H-imidazol-2(3H)-one] | 1 to 10 | 0.3 to 30
5 | C[C@@H]1CN(c2cc(-c3cc(F)cc(-c4ccc(-n5ccn(C)c5=O)c(F)c4)c3O)ccn2)CCN1 [Example 534, (R)-1-(3,5′-difluoro-2′-hydroxy-3′-(2-(3-methylpiperazin-1-yl)pyridin-4-yl)-[1,1′-biphenyl]-4-yl)-3-methyl-1H-imidazol-2(3H)-one] | 1 to 10 | 0.3 to 30
6 | Cn1ccn(-c2ccc(-c3cc(F)cc(-c4cc(N5CCNCC5)c5nn[nH]c5c4)c3O)cc2Cl)c1=O [Example 535, 1-(3-chloro-5′-fluoro-2′-hydroxy-3′-(4-(piperazin-1-yl)-1H-benzo[d][1,2,3]triazol-6-yl)-[1,1′-biphenyl]-4-yl)-3-methyl-1H-imidazol-2(3H)-one] | 1 to 10 | 0.3 to 30
7 | C[C@@H]1CN(c2cc(-c3cc(F)cc(-c4ccc(-n5ccn(C)c5=O)c(Cl)c4)c3O)cc3[nH]nnc23)CCN1 [Example 536, (R)-1-(3-chloro-5′-fluoro-2′-hydroxy-3′-(4-(3-methylpiperazin-1-yl)-1H-benzo[d][1,2,3]triazol-6-yl)-[1,1′-biphenyl]-4-yl)-3-methyl-1H-imidazol-2(3H)-one] | 1 to 10 | 0.3 to 30
8 | Cn1ccn(-c2ccc(-c3cc(F)cc(-c4cc(N5CC[C@H](N)C5)c5nn[nH]c5c4)c3O)cc2Cl)c1=O [Example 537, (S)-1-(3′-(4-(3-aminopyrrolidin-1-yl)-1H-benzo[d][1,2,3]triazol-6-yl)-3-chloro-5′-fluoro-2′-hydroxy-[1,1′-biphenyl]-4-yl)-3-methyl-1H-imidazol-2(3H)-one] | 1 to 10 | 30 to 300
9 | C[C@@H]1CN(c2cc(-c3cc(Cl)cc(-c4ccc(-n5ccn(C)c5=O)c(F)c4)c3O)ccn2)CCN1 [Example 538, (R)-1-(5′-chloro-3-fluoro-2′-hydroxy-3′-(2-(3-methylpiperazin-1-yl)pyridin-4-yl)-[1,1′-biphenyl]-4-yl)-3-methyl-1H-imidazol-2(3H)-one] | 1 to 10 | 30 to 300
10 | Cn1ccn(-c2ccc(-c3cc(Cl)cc(-c4ccnc(N5CC[C@H](N)C5)c4)c3O)cc2Cl)c1=O [Example 539, (S)-1-(3′-(2-(3-aminopyrrolidin-1-yl)pyridin-4-yl)-3,5′-dichloro-2′-hydroxy-[1,1′-biphenyl]-4-yl)-3-methyl-1H-imidazol-2(3H)-one] | 1 to 10 | 0.3 to 30
11 | C[C@@H]1CN(c2cc(-c3cc(Cl)cc(-c4ccc(-n5ccn(C)c5=O)c(Cl)c4)c3O)ccn2)CCN1 [Example 540, (R)-1-(3,5′-dichloro-2′-hydroxy-3′-(2-(3-methylpiperazin-1-yl)pyridin-4-yl)-[1,1′-biphenyl]-4-yl)-3-methyl-1H-imidazol-2(3H)-one] | 1 to 10 | 0.3 to 30
12 | Cn1ccn(-c2ccc(-c3cc(F)cc(-c4ccnc(N5CC[C@H](N)C5)c4)c3N)cc2Cl)c1=O [Example 541, (S)-1-(2′-amino-3′-(2-(3-aminopyrrolidin-1-yl)pyridin-4-yl)-3-chloro-5′-fluoro-[1,1′-biphenyl]-4-yl)-3-methyl-1H-imidazol-2(3H)-one] | 1 to 10 | 30 to 300
13 | C[C@@H]1CN(c2cc(-c3cc(F)cc(-c4ccc(-n5ccn(C)c5=O)c(Cl)c4)c3N)ccn2)CCN1 [Example 542, (R)-1-(2′-amino-3-chloro-5′-fluoro-3′-(2-(3-methylpiperazin-1-yl)pyridin-4-yl)-[1,1′-biphenyl]-4-yl)-3-methyl-1H-imidazol-2(3H)-one] | 1 to 10 | 30 to 300
14 | C[C@@H]1CN(c2cc(-c3cc(F)cc(-c4ccc(-n5ccn(C)c5=O)c(Cl)c4)c3O)cc3[nH]ncc23)CCN1 [Example 543, (R)-1-(3-chloro-5′-fluoro-2′-hydroxy-3′-(4-(3-methylpiperazin-1-yl)-1H-indazol-6-yl)-[1,1′-biphenyl]-4-yl)-3-methyl-1H-imidazol-2(3H)-one] | 0.01 to 1 | 0.3 to 30
15 | CC(=O)Nc1cc(-c2cc(F)cc(-c3ccc(-n4ccn(C)c4=O)c(Cl)c3)c2O)cc(N2CCN[C@H](C)C2)n1 [Example 544] | 0.01 to 1 | 0.3 to 30
16 | Cc1cc(-c2cncc(N3CCN[C@H](C)C3)c2)c(O)c(-c2ccc(-n3ccn(C)c3=O)c(F)c2)c1 [Example 545, (R)-1-(3-fluoro-2′-hydroxy-5′-methyl-3′-(5-(3-methylpiperazin-1-yl)pyridin-3-yl)-[1,1′-biphenyl]-4-yl)-3-methyl-1H-imidazol-2(3H)-one] | 0.01 to 1 | 0.3 to 30
17 | Cc1cc(-c2ccnc(N3CCN[C@H](C)C3)c2)c(O)c(-c2ccc(-n3ccn(C)c3=O)c(F)c2)c1 [Example 546, (R)-1-(3-fluoro-2′-hydroxy-5′-methyl-3′-(2-(3-methylpiperazin-1-yl)pyridin-4-yl)-[1,1′-biphenyl]-4-yl)-3-methyl-1H-imidazol-2(3H)-one] | 0.01 to 1 | 0.3 to 30
18 | Cn1ccn(-c2ccc(-c3cc(F)cc(-c4cc(N5CCNCC5)c5nccnc5c4)c3O)cc2Cl)c1=O [Example 547, 1-(3-chloro-5′-fluoro-2′-hydroxy-3′-(8-(piperazin-1-yl)quinoxalin-6-yl)-[1,1′-biphenyl]-4-yl)-^3-methyl-1H-imidazol-2(3H)-one] | 0.01 to 1 | 0.3 to 30
19 | Cn1ccn(-c2ccc(-c3cc(F)cc(-c4cc(N5CC[C@H](N)C5)c5nccnc5c4)c3O)cc2Cl)c1=O [Example 548, (S)-1-(3′-(8-(3-aminopyrrolidin-1-yl)quinoxalin-6-yl)-3-chloro-5′-fluoro-2′-hydroxy-[1,1′-biphenyl]-4-yl)-3-methyl-1H-imidazol-2(3H)-one] | 1 to 10 | 0.3 to 30
20 | C[C@@H]1CN(c2cc(-c3cc(F)cc(-c4ccc(-n5ccn(C)c5=O)c(Cl)c4)c3O)cc3nccnc23)CCN1 [Example 549, (R)-1-(3-chloro-5′-fluoro-2′-hydroxy-3′-(8-(3-methylpiperazin-1-yl)quinoxalin-6-yl)-[1,1′-biphenyl]-4-yl)-3-methyl-1H-imidazol-2(3H)-one] | 1 to 10 | 0.3 to 30
